# Laboratory results taken from patent US20220016215A1, “GIP RECEPTOR AGONIST PEPTIDE COMPOUNDS AND USES THEREOF” (TAKEDA PHAARMACEUTICAL COMPANY LIMITED, priority 2018, published 2022).
# Where two headings read alike, the source gives them in different places.
# Tests used:
# human GIPR = target: T1, human GIPR (Homo sapiens, UniProt P48546); assay: Agonist activity on human GIPR, CRE-luciferase reporter assay (increase in intracellular cAMP as indicator); assay type: cell-based; details: for Selectivity Ratio (B/A): GLP1R EC50 / GIPR EC50; for EC50: hGIPR/CRE-LUC/CHO-K1 cells, 4 h incubation
# T1 construct: expressed in transfected cells
# T1 sequence (P48546 22-466): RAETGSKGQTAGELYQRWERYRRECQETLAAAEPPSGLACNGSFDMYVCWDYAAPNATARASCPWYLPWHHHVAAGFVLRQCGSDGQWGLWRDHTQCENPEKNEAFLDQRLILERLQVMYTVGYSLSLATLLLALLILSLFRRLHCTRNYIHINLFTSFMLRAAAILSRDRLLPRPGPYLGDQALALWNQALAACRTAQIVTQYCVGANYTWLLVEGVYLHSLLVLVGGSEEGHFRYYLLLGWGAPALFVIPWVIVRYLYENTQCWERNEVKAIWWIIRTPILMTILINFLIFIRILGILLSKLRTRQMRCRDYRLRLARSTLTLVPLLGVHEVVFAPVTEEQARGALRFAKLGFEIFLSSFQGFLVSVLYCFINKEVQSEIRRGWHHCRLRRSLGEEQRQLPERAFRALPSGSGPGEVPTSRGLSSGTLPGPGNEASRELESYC
# In short: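 CHO-K1 cells carrying CRE-luciferase and stably expressing human GIPR, 5×10^3 cells/well, exposed to compound for 4 hours at 37° C.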
# human GLP-1R = human GLP-1R (Homo sapiens, UniProt P43220); assay: Agonist activity on human GLP-1R, CRE-luciferase reporter assay (increase in intracellular cAMP as indicator); assay type: cell-based; parameters: expressed in transfected cells; details: hGLP-1R/CRE-luc/CHO-K1 cells, 4 h incubation
# Source text: The human GIPR gene having an identical sequence to Genebank Accession No. U39231 is cloned into a pMSRα-neo vector to prepare hGIPR/pMSRα-neo.
# (3) Construction of Reporter Plasmid
# Four copies of a cAMP responsive sequence and a Zeocin resistance gene are transferred to pGL3(R2.2)-Basic Vector (Promega) to construct a Cre-luc(Zeo) reporter plasmid.
# (5) Construction of Expression Plasmid of Human GLP-1R Gene
# The human GLP-1R gene having an identical sequence to Genebank Accession No. NM_002062 is cloned into a pIRESneo3 vector to prepare hGLP-1/pIRESneo3.
# (6) Transfer of Human GLP-1R Gene and Reporter Plasmid to CHO-K1 Cell and Obtaining of Expressing Cell
# The Cre-luc (Zeo) obtained in (3) and the plasmid hGLP-1/pIRESneo3 obtained in (5) transferred to the CHO-K1 cell to obtain a transformant. Subsequently, the cell line inducing the luciferase expression, hGLP-1R/CRE-luc/CHO-K1 cell, is selected from the obtained transformant by adding GLP-1.
# The GLP-1R agonist activity is assayed in the same manner as above using the hGLP-1R/CRE-luc/CHO-K1 cell.
# [1] = system: morphine (0.6 mg/kg, s.c.)-induced emesis in ferrets; assay: Morphine-induced acute emetic model in male ferrets; assay type: in vivo, ferret
# In short: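 Male ferrets (4 per group) received peptide at 10 or 30 nmol/kg s.c. in 0.09% Tween 80/10% DMSO/saline, or vehicle. Morphine 0.6 mg/kg s.c. was given 4 or 120 h later, and abdominal contractions, vomiting, licking and fidgeting were recorded for up to 360 min.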
# [2] = ferret, morphine 0.6 mg/kg s.c. 0.5 h after drug, 128 μg/kg s.c.
# [3] = ferret, morphine 0.6 mg/kg s.c. 0.5 h after drug, 128 μg/kg s.c., non-responders counted as 30 min
# Sequence of human GLP-1R (P43220 24-463): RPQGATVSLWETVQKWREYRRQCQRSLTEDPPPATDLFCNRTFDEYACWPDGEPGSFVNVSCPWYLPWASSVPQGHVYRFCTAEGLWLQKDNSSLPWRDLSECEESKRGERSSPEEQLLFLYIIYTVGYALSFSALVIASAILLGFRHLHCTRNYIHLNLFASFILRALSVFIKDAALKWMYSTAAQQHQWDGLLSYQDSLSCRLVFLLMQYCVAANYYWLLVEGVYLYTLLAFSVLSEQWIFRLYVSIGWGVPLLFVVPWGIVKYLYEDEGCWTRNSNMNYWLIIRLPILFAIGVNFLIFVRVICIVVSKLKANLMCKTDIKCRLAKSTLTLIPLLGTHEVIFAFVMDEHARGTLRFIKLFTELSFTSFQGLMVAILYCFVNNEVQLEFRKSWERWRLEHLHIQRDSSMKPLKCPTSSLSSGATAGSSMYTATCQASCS
structure (smiles),measurement,setting,value
CC[C@H](C)[C@H](NC(=O)[C@H](CC(C)C)NC(=O)[C@H](Cc1c[nH]c2ccccc12)NC(=O)[C@H](CCC(N)=O)NC(=O)[C@@H](NC(=O)[C@H](Cc1ccccc1)NC(=O)[C@H](C)NC(=O)[C@H](CCCNC(=N)N)NC(=O)[C@H](CCC(N)=O)NC(=O)[C@H](C)NC(=O)[C@@H](NC(=O)[C@H](CCCCN)NC(=O)[C@H](CC(=O)O)NC(=O)[C@H](CC(C)C)NC(=O)C(C)(C)NC(=O)[C@@H](NC(=O)[C@H](CO)NC(=O)[C@H](Cc1ccc(O)cc1)NC(=O)[C@H](CC(=O)O)NC(=O)[C@H](CO)NC(=O)[C@@H](NC(=O)[C@H](Cc1ccccc1)NC(=O)[C@@H](NC(=O)CNC(=O)[C@H](CCC(=O)O)NC(=O)C(C)(C)NC(=O)[C@@H](N)Cc1ccc(O)cc1)[C@@H](C)O)[C@@H](C)O)[C@@H](C)CC)[C@@H](C)CC)C(C)C)C(=O)N[C@@H](C)C(=O)NC(C)(C)C(=O)N[C@@H](CCCCN)C(=O)NCC(=O)N[C@@H](CCCCN)C(=O)N[C@@H](CCCCN)C(=O)N[C@@H](CCC(N)=O)C(=O)N[C@@H](CCC(=O)O)C(=O)N[C@@H](Cc1c[nH]c2ccccc12)C(=O)N[C@@H](CCCCN)C(=O)N[C@@H](Cc1c[nH]cn1)C(=O)N[C@@H](CCC(N)=O)C(=O)N[C@H](C(=O)N[C@H](C(=O)N[C@@H](CCC(N)=O)C(=O)N[C@@H](CCCCNC(C)=O)C(N)=O)[C@@H](C)O)[C@@H](C)CC [Compound 16],Selectivity Ratio (B/A),human GIPR,20
same,EC50,human GIPR; read-out: GIPR pEC50 (converted),0.001 nM
same,EC50,human GLP-1R; read-out: GLP1R EC50 nM (B),< 0.02 nM
same,EC50,human GLP-1R; read-out: GLP1R pEC50 (converted),0.017 nM
CC[C@H](C)[C@H](NC(=O)[C@H](CO)NC(=O)[C@H](Cc1ccc(O)cc1)NC(=O)[C@H](CC(=O)O)NC(=O)[C@H](CO)NC(=O)[C@@H](NC(=O)[C@H](Cc1ccccc1)NC(=O)[C@@H](NC(=O)CNC(=O)[C@@H]1CCCN1C(=O)[C@H](C)NC(=O)[C@@H](N)Cc1ccc(O)cc1)[C@@H](C)O)[C@@H](C)CC)C(=O)N[C@@H](C)C(=O)N[C@@H](CCSC)C(=O)N[C@@H](CC(=O)O)C(=O)N[C@@H](CCCCN)C(=O)N[C@H](C(=O)N[C@@H](Cc1c[nH]cn1)C(=O)N[C@@H](CCC(N)=O)C(=O)N[C@@H](CCC(N)=O)C(=O)N[C@@H](CC(=O)O)C(=O)N[C@@H](Cc1ccccc1)C(=O)N[C@H](C(=O)N[C@@H](CC(N)=O)C(=O)N[C@@H](Cc1c[nH]c2ccccc12)C(=O)N[C@@H](CC(C)C)C(=O)N[C@@H](CC(C)C)C(=O)N[C@@H](C)C(=O)N[C@@H](CCC(N)=O)C(=O)N[C@@H](CCCCN)C(=O)N1CCC[C@H]1C(=O)N[C@@H](CO)C(=O)N[C@@H](CO)C(=O)NCC(=O)N[C@@H](C)C(=O)N1CCC[C@H]1C(=O)N1CCC[C@H]1C(=O)N1CCC[C@H]1C(=O)N[C@@H](CO)C(N)=O)C(C)C)[C@@H](C)CC [Compound 12],Selectivity Ratio (B/A),human GIPR,">23,810"
same,EC50,human GIPR; read-out: GIPR EC50 nM (A),0.042 nM
same,Emesis: Duration,[1]; [2],1.5 ± 2.4 min
same,Emesis: Frequency,[1]; [2],3.8 ± 5.7
same,Emesis: No. of animals (responder/used),[1]; [2],2/4
same,Fidget: Duration,[1]; [2],1.3 ± 1.9 min
same,Fidget: Frequency,[1]; [2],0.8 ± 1.0
same,Fidget: No. of animals (responder/used),[1]; [2],2/4
same,Licking: Duration,[1]; [2],1.5 ± 1.7 min
same,Licking: Frequency,[1]; [2],1.3 ± 1.0
same,Licking: No. of animals (responder/used),[1]; [2],3/4
same,Retching: Duration,[1]; [2],1.5 ± 2.4 min
same,Retching: Frequency,[1]; [2],3.3 ± 5.3
same,Retching: No. of animals (responder/used),[1]; [2],2/4
same,Vomiting: Duration,[1]; [2],0.5 ± 0.6 min
same,Vomiting: Frequency,[1]; [2],0.5 ± 0.6
same,Vomiting: No. of animals (responder/used),[1]; [2],2/4
same,Emesis: Latency,[1]; [3],18.3 ± 13.7 min
same,Fidget: Latency,[1]; [3],18.3 ± 13.7 min
same,Licking: Latency,[1]; [3],13.8 ± 11.3 min
same,Retching: Latency,[1]; [3],18.3 ± 13.7 min
same,Vomiting: Latency,[1]; [3],19.5 ± 12.1 min
same,Attenuation of morphine-induced emesis (in words),"[1]; male ferrets, 30 nmol/kg s.c. 30 minutes before morphine 0.6 mg/kg s.c.",completely attenuated
same,Comment: Anti-Emetic Activity (inhibition) on morphine-induced emesis,"[1]; male ferrets, summary of the morphine experiments",partial inhibition
same,EC50,human GLP-1R; read-out: GLP1R EC50 nM (B),> 1000 nM
